The target in experiment [1] is Human Axl (residues H473-A894 with Q764R) (Homo sapiens (Human), UniProt P30530, Q764R). The experiment can be described thus: Human AXL kinase assay (33P radiometric, KinaseProfiler). The experiment is classed as biochemical. Conditions: 10 μM ATP.
For experiment [2], the target named is Human Mer (residues R557-E882 with H628Q and R794A) (Homo sapiens (Human), UniProt Q12866). The experiment can be described thus: Human Mer kinase assay (33P radiometric, KinaseProfiler). The following applies: 10 μM ATP. The experiment is classed as biochemical.
Sequence of Human Mer (residues R557-E882 with H628Q and R794A) (Q12866 557-882, stated change not applied): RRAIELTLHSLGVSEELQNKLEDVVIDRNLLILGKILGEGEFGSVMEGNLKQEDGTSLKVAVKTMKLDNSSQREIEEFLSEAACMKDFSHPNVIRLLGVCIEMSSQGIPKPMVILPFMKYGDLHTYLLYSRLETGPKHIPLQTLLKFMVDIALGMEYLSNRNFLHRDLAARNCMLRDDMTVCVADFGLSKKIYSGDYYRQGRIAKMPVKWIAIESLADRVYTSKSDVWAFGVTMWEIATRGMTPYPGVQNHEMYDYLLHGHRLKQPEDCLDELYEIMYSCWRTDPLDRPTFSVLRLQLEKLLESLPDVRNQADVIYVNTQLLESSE
Experiment [3] concerns the target AXL (Homo sapiens (Human), UniProt P30530). Nature of the experiment: AXL autophosphorylation ELISA in A-172 cells. The experiment is classed as cell-based. Conditions: cellular, Gas6 stimulated. The method, boiled down:
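Serum-starved (24 h) A-172 glioblastoma cells pretreated 1 h with compounds (8-point curve, 0.3% DMSO), then stimulated 15 min with 1 μg/mL Gas6. Lysate phospho-AXL measured by sandwich ELISA against a phospho-AXL standard; IC50 from 4-parameter logistic fit between DMSO and reference-inhibitor controls.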
(ELISA stands for enzyme-linked immunosorbent assay.)

Experiment [4] addresses Met (Homo sapiens (Human), UniProt P08581). The experiment can be described thus: Met autophosphorylation ELISA in PC-3 cells. The experiment is classed as cell-based. Conditions: cellular, HGF stimulated, read-out: c-Met IC50. A digest of the protocol:
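Phospho-Met (panTyr) sandwich ELISA on lysates of PC-3 cells given 100 ng/mL HGF for 10 min after 1 h compound exposure (8-point curve, 0.3% DMSO) following 3 h serum starvation. Normalised to HGF-stimulated DMSO and reference-inhibitor wells; 4-parameter logistic IC50.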

Sequence of Human Axl (residues H473-A894 with Q764R) (P30530 473-894 Q764R): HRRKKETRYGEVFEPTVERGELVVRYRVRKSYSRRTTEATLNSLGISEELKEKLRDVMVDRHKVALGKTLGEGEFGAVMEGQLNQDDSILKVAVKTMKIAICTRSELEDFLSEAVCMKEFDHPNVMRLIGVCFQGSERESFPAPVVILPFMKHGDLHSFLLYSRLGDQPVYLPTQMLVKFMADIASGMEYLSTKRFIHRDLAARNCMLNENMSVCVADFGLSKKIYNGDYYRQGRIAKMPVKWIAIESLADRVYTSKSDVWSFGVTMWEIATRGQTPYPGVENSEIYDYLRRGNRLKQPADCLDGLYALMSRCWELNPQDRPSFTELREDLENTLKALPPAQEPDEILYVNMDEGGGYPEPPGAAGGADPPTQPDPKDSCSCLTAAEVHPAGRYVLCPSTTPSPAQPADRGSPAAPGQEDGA
Sequence of Met (P08581 25-1390): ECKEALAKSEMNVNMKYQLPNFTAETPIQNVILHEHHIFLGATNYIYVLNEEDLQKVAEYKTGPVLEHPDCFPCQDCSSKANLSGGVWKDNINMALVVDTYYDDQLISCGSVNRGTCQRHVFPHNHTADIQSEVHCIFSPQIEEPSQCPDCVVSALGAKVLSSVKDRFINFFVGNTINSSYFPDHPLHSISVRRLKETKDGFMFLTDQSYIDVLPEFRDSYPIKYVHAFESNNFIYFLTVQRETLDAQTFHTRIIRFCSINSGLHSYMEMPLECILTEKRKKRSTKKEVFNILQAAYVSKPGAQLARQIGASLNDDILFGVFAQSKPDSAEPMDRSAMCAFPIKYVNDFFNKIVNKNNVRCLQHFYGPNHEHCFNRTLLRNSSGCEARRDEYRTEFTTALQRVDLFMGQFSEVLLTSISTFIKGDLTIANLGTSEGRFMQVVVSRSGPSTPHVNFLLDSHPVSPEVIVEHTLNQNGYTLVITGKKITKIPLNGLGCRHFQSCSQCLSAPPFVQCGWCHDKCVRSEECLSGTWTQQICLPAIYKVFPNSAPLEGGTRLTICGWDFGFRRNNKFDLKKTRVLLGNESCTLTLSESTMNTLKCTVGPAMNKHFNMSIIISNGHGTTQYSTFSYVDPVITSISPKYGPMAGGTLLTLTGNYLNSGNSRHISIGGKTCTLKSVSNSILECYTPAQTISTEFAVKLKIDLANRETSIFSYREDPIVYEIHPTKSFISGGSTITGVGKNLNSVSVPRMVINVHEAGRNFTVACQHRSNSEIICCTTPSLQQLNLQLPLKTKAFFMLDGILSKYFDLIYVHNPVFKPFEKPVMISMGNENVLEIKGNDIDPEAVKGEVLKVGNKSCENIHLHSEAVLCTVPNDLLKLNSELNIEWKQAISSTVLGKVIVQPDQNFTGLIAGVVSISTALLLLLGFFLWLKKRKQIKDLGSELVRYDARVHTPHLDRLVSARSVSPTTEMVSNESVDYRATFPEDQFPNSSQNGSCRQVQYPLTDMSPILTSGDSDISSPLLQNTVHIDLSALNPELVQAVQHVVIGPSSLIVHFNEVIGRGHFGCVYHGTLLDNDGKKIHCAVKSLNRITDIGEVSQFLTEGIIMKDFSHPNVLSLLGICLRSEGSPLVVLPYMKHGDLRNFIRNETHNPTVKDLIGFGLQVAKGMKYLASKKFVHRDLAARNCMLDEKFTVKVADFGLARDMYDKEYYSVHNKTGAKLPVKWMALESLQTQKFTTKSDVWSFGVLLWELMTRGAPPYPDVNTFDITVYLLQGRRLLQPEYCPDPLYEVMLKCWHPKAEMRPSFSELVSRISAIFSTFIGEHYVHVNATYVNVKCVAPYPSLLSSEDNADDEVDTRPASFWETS
Sequence of AXL (P30530 26-894): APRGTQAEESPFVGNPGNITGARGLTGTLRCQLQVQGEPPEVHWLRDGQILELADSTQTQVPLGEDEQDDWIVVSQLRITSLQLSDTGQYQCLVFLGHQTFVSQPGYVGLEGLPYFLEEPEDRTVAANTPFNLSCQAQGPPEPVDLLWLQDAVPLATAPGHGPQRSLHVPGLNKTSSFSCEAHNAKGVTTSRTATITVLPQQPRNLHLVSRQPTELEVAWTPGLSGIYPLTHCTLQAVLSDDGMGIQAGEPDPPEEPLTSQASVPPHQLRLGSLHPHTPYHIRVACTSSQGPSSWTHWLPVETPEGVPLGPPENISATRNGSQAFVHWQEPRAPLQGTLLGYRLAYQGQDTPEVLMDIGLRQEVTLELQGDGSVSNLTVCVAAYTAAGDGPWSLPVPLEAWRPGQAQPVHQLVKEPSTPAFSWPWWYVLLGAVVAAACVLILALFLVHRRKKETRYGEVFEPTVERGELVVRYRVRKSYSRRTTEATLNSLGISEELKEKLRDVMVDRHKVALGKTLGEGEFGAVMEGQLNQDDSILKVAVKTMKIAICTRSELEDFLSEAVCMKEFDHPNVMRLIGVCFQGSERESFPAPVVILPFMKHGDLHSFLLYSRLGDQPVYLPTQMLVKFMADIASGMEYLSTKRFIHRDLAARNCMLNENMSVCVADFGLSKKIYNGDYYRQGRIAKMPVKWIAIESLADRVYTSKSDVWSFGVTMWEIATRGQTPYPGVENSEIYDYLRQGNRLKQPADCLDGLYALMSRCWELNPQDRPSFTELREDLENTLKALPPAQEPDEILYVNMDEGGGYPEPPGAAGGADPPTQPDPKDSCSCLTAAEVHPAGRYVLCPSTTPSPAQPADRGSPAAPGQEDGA

For orientation: IC50 means the point on the concentration scale where inhibition reaches its midpoint. Take `COc1cc2nccc(Oc3ccc(NC(=O)C4(C(=O)Nc5ccc(F)cc5)CC4)cc3)c2cc1S(C)(=O)=O` [Compound 210, 1-N′-(4-Fluorophenyl)-1-N-[4-(7-methoxy-6-methylsulfonylquinolin-4-yl)oxyphenyl]cyclopropane-1,1-dicarboxamide]: the IC50 in experiment [1] was at most 0.01 µM; in experiment [2], at most 0.01 µM; in experiment [3] it was 0.01 to 0.1 µM; in experiment [4] it was 0.01 to 0.1 µM.
On to `COc1cc2nccc(Oc3ccc(NC(=O)C4(C(=O)Nc5ccc(F)cc5)CC4)cc3)c2cc1C1(O)CNC1` [Compound 197, 1-N′-(4-fluorophenyl)-1-N-[4-[6-(3-hydroxyazetidin-3-yl)-7-methoxyquinolin-4-yl]oxyphenyl]cyclopropane-1,1-dicarboxamide], for which the IC50 in experiment [1] was 0.01 to 0.1 µM; in experiment [2] it was at most 0.01 µM; in experiment [3], 0.1 to 0.3 µM; in experiment [4], 0.1 to 0.3 µM.
Regarding `COc1cc2nccc(Oc3ccc(NC(=O)C4(C(=O)Nc5ccc(F)cc5)CC4)cc3F)c2cc1C(=O)O` [Compound 131, 4-[2-fluoro-4-[[1-[(4-fluorophenyl)carbamoyl]cyclopropanecarbonyl]amino]phenoxy]-7-methoxyquinoline-6-carboxylic acid], the IC50 in experiment [1] was 0.01 to 0.1 µM; in experiment [2], 0.01 to 0.1 µM; in experiment [3] it was over 0.3 µM; in experiment [4] it was over 0.3 µM.
For `Cc1cc2c(Oc3ccc(NC(=O)C4(C(=O)Nc5ccc(F)cc5)CC4)cc3)ccnc2cc1C(N)=O` [Compound 142, 1-N-[4-(7-carbamoyl-6-methylquinolin-4-yl)oxyphenyl]-1-N′-(4-fluorophenyl)cyclopropane-1,1-dicarboxamide], the IC50 in experiment [1] is at most 0.01 µM; in experiment [2], at most 0.01 µM; in experiment [3] it was 0.01 to 0.1 µM; in experiment [4], 0.01 to 0.1 µM.
For `COc1cc2nccc(Oc3ccc(NC(=O)C4(C(=O)Nc5ccc(F)cc5)CC4)cc3)c2cc1C#N` [Compound 37, 1-N-[4-(6-cyano-7-methoxyquinolin-4-yl)oxyphenyl]-1-N′-(4-fluorophenyl)cyclopropane-1,1-dicarboxamide], the IC50 in experiment [1] was 0.01 to 0.1 µM; in experiment [2] it was at most 0.01 µM; in experiment [3] it was 0.01 to 0.1 µM; in experiment [4], 0.01 to 0.1 µM.
Turning to `COc1cc2nccc(Oc3ccc(NC(=O)C4(C(=O)Nc5ccc(F)cc5)CC4)cc3)c2cc1N1CC(O)C1` [Compound 199, 1-N′-(4-fluorophenyl)-1-N-[4-[6-(3-hydroxyazetidin-1-yl)-7-methoxyquinolin-4-yl]oxyphenyl]cyclopropane-1,1-dicarboxamide], the IC50 in experiment [1], in experiment [2], in experiment [3] and in experiment [4] was at most 0.01 µM in each case.
`COc1cc2c(Oc3ccc(NC(=O)C4(C(=O)Nc5ccc(F)cc5)CC4)cc3)ccnc2cc1C(N)=O` [Compound 152, 1-N-[4-(7-carbamoyl-6-methoxyquinolin-4-yl)oxyphenyl]-1-N′-(4-fluorophenyl)cyclopropane-1,1-dicarboxamide]: the IC50 in experiment [1] was 0.01 to 0.1 µM; in experiment [2] it was at most 0.01 µM; in experiment [3], 0.01 to 0.1 µM; in experiment [4], 0.1 to 0.3 µM.
Consider `NC(=O)c1cc2c(Oc3ccc(NC(=O)C4(C(=O)Nc5ccc(F)cc5)CC4)cc3)ccnc2cc1OCCCN1CCOCC1` [Compound 98, 1-N-[4-[6-carbamoyl-7-(3-morpholin-4-ylpropoxy)quinolin-4-yl]oxyphenyl]-1-N′-(4-fluorophenyl)cyclopropane-1,1-dicarboxamide], for which the IC50 in experiment [1], in experiment [2], in experiment [3] and in experiment [4] was at most 0.01 µM in each case.
For `COc1cc2nccc(Oc3ccc(NC(=O)C4(C(=O)Nc5ccc(F)cc5)CC4)cc3)c2cc1N1CCC1` [Compound 198, 1-N-[4-[6-(azetidin-1-yl)-7-methoxyquinolin-4-yl]oxyphenyl]-1-N′-(4-fluorophenyl)cyclopropane-1,1-dicarboxamide], the IC50 in experiment [1] was 0.01 to 0.1 µM; in experiment [2], at most 0.01 µM; in experiment [3], 0.01 to 0.1 µM; in experiment [4], 0.01 to 0.1 µM.
In the case of `COc1cc2nccc(Oc3ccc(NC(=O)C4(C(=O)Nc5ccc(F)cc5)CC4)cc3)c2cc1-c1nnco1` [Compound 220, 1-N′-(4-Fluorophenyl)-1-N-[4-[7-methoxy-6-(1,3,4-oxadiazol-2-yl)quinolin-4-yl]oxyphenyl]cyclopropane-1,1-dicarboxamide], the IC50 in experiment [1] is at most 0.01 µM; in experiment [2], at most 0.01 µM; in experiment [3], at most 0.01 µM; in experiment [4], 0.01 to 0.1 µM.
Regarding `COC(=O)c1cc2c(Oc3ccc(NC(=O)C4(C(=O)Nc5ccc(F)cc5)CC4)cc3Cl)ccnc2cc1OC` [Compound 128, methyl 4-[2-chloro-4-[[1-[(4-fluorophenyl)carbamoyl]cyclopropanecarbonyl]amino]phenoxy]-7-methoxyquinoline-6-carboxylate], the concentration for half-maximal inhibition (IC50) was at most 0.01 µM in experiment [1], at most 0.01 µM in experiment [2], 0.01 to 0.1 µM in experiment [3] and 0.01 to 0.1 µM in experiment [4].
For `CNC(=O)c1cc2c(Oc3ccc(NC(=O)C4(C(=O)Nc5ccc(F)cc5)CC4)cc3F)ccnc2cc1OC` [Compound 135, 1-N′-[3-fluoro-4-[7-methoxy-6-(methylcarbamoyl)quinolin-4-yl]oxyphenyl]-1-N-(4-fluorophenyl)cyclopropane-1,1-dicarboxamide], the IC50 in experiment [1], in experiment [2], in experiment [3] and in experiment [4] was at most 0.01 µM in each case.
`NC(=O)c1ccc2c(Oc3ccc(NC(=O)C4(C(=O)Nc5ccc(F)cc5)CC4)cc3)ccnc2c1` [Compound 164, 1-N-[4-(7-carbamoylquinolin-4-yl)oxyphenyl]-1-N′-(4-fluorophenyl)cyclopropane-1,1-dicarboxamide]: the IC50 in experiment [1], in experiment [2], in experiment [3] and in experiment [4] was at most 0.01 µM in each case.
`COC(=O)c1cc2c(Oc3ccc(NC(=O)C4(C(=O)Nc5ccc(F)cc5)CC4)cc3)ccnc2cc1OC` [Compound 5, methyl 4-[4-[[1-[(4-fluorophenyl)carbamoyl]-cyclopropanecarbonyl]amino]-phenoxy]-7-methoxyquinoline-6-carboxylate]: the IC50 in experiment [1] is 0.01 to 0.1 µM; in experiment [2], at most 0.01 µM; in experiment [3], 0.01 to 0.1 µM; in experiment [4], 0.01 to 0.1 µM.
As to `COc1cc2nccc(Oc3ccc(NC(=O)C4(C(=O)Nc5ccc(F)cc5)CC4)cc3)c2cc1N1CC(F)(F)C1` [Compound 200, 1-N-[4-[6-(3,3-difluoroazetidin-1-yl)-7-methoxyquinolin-4-yl]oxyphenyl]-1-N′-(4-fluorophenyl)cyclopropane-1,1-dicarboxamide], the IC50 in experiment [1] is 0.01 to 0.1 µM; in experiment [2], at most 0.01 µM; in experiment [3], 0.01 to 0.1 µM; in experiment [4], 0.01 to 0.1 µM.
For `COc1cc2nccc(Oc3ccc(NC(=O)C4(C(=O)Nc5ccc(F)cc5)CC4)cc3)c2cc1-c1cccc(C#N)c1F` [Compound 175, 1-N-[4-[6-(3-cyano-2-fluorophenyl)-7-methoxyquinolin-4-yl]oxyphenyl]-1-N′-(4-fluorophenyl)cyclopropane-1,1-dicarboxamide], the IC50 in experiment [1] was 0.01 to 0.1 µM; in experiment [2] it was at most 0.01 µM; in experiment [3], 0.01 to 0.1 µM; in experiment [4], 0.01 to 0.1 µM.
In the case of `COC(=O)c1cc2nccc(Oc3ccc(NC(=O)C4(C(=O)Nc5ccc(F)cc5)CC4)cc3)c2cc1OC` [Compound 150, methyl 4-[4-[[1-[(4-fluorophenyl)carbamoyl]cyclopropanecarbonyl]amino]phenoxy]-6-methoxyquinoline-7-carboxylate], the IC50 in experiment [1] is 0.01 to 0.1 µM; in experiment [2], at most 0.01 µM; in experiment [3] it was 0.01 to 0.1 µM; in experiment [4] it was 0.01 to 0.1 µM.
Take `COc1cc2nccc(Oc3ccc(NC(=O)C4(C(=O)Nc5ccc(F)cc5)CC4)cc3)c2cc1-c1cn[nH]c1` [Compound 186, 1-N′-(4-fluorophenyl)-1-N-[4-[7-methoxy-6-(1H-pyrazol-4-yl)quinolin-4-yl]oxyphenyl]cyclopropane-1,1-dicarboxamide]: the IC50 in experiment [1] is 0.01 to 0.1 µM; in experiment [2], at most 0.01 µM; in experiment [3] it was at most 0.01 µM; in experiment [4], 0.01 to 0.1 µM.
For `COc1cc2nccc(Oc3ccc(NC(=O)C4(C(=O)Nc5ccc(F)cc5)CC4)cc3)c2cc1C1CC1` [Compound 187, 1-N-[4-(6-cyclopropyl-7-methoxyquinolin-4-yl)oxyphenyl]-1-N′-(4-fluorophenyl)cyclopropane-1,1-dicarboxamide], the IC50 in experiment [1] was at most 0.01 µM; in experiment [2] it was at most 0.01 µM; in experiment [3], 0.01 to 0.1 µM; in experiment [4], 0.01 to 0.1 µM.
Take `COC(=O)c1ccc2c(Oc3ccc(NC(=O)C4(C(=O)Nc5ccc(F)cc5)CC4)cc3)ccnc2c1` [Compound 162, methyl 4-[4-[[1-[(4-fluorophenyl)carbamoyl]cyclopropanecarbonyl]amino]phenoxy]quinoline-7-carboxylate]: the IC50 in experiment [1] was 0.01 to 0.1 µM; in experiment [2], at most 0.01 µM; in experiment [3], over 0.3 µM; in experiment [4] it was 0.1 to 0.3 µM.
The matching figures for `COc1cc2nccc(Oc3ccc(NC(=O)C4(C(=O)Nc5ccc(F)cc5)CC4)cc3)c2cc1S(N)(=O)=O` [Compound 206, 1-N′-(4-Fluorophenyl)-1-N-[4-(7-methoxy-6-sulfamoylquinolin-4-yl)oxyphenyl]cyclopropane-1,1-dicarboxamide]: at most 0.01 µM, at most 0.01 µM, at most 0.01 µM and at most 0.01 µM.

Values taken from US11542259B2, “Compounds for the treatment of kinase-dependent disorders” (Exelixis, Inc., priority 2018, dated 2023).
